Laboratory results from patent US5721366A, “Platelet aggregation inhibitors” (G. D. Searle & Co, priority 1995, dated 1998).
Counter-ions that a name gives are not always drawn.

Legend:
[1] = system: Dog platelet aggregation (platelet-rich plasma); assay: In-Vitro Platelet Aggregation in PRP (Dog), collagen-induced; type: cell-based; details: for IC50: collagen-induced aggregation (33 μg/ml final), 37° C.; for inhibition at 1 µM: collagen-induced aggregation
Method: In-Vitro Platelet Aggregation in PRP--(Dog)
Healthy male or female dogs were fasted for 8 hours prior to drawing blood; then 60 ml whole blood was collected using a butterfly needle and 30 cc plastic syringe with 6 ml of 0.129M buffered sodium citrate (3.8%) (drawn from a minimum of 3 dogs and blood was pooled). The syringe was rotated carefully as blood was drawn to mix the citrate. Platelet-rich plasma (PRP) was prepared by centrifugation at 975×g for 3.17 minutes at room temperature, allowing the centrifuge to coast to a stop without braking. The PRP was removed from the blood with a plastic pipette and placed in a plastic capped 50 ml Corning conical sterile centrifuge tube which was held at room temperature. Platelet poor plasma (PPP) was prepared by centrifuging the remaining blood at 2000×g for 15 minutes at room temperature allowing the centrifuge to coast to a stop without braking. The platelet count in the PRP was routinely 2-4×10^8 platelets per ml. 400 μl of the PRP preparation and 50 μl of the compound to be tested or saline were preincubated for 2 minutes at 37° C. in a BioData aggregometer (BioData, Horsham, Pa.). 50 μl of collagen (diluted 1:3 with 5% dextrose and water solution, 33 μg/ml final concentration, equine tendon, Chronolog, Havertown, Pa.) was added to the cuvettes and the aggregation was monitored for 3 minutes. All compounds are tested in duplicate.
Results are calculated as follows:
Percent of control=[(maximal OD minus initial OD of compound) divided by (maximal OD minus initial OD of control saline)]×100. The % inhibition=100-(percent of control).
(§1) (NT in the following table indicates not tested.)

[2] = system: Human platelet aggregation (platelet-rich plasma); assay: Inhibition of Human Platelet Aggregation (PRP), collagen-induced; type: cell-based; details: collagen-induced aggregation (4 μg/ml final), 37° C.
Method: Inhibition of Human Platelet Aggregation (PRP)
Platelet rich plasma was prepared from citrated whole blood (3.8% Na citrate, 1:10 in 30 ml blood) withdrawn from the antecubital vein (n=1). PRP was prepared by centrifugation (Sorvall RC3C, DuPont, Wilmington, Del.) of the whole blood at 1000×g for 3 min, allowing the centrifuge to stop without braking. Platelet poor plasma (PPP) was prepared by centrifugation of PRP at 2000×g for 10 min. […] Aggregation was measured in a 4 channel aggregometer (model PAP-4C, Bio/Data Corp., Hatboro, Pa.). Aliquots of PPP were used to standardize the aggregometer for measurement of maximum light transmission. Platelet aggregation was measured as an increase in light transmission.
PRP (430 μl aliquot) was preincubated with 50 μl of various concentrations of compound (dissolved in 10% ETOH/water at a concentration of 10^-3 M. Compounds were diluted to desired concentration with 0.9% NaCl) for 2 min at 37° C., with stirring at 900 rpm, in the aggregometer. The stock collagen (Chronolog, Havertown, Pa., equine tendon) was diluted 1:10 with a 5% dextrose and water solution. The vehicle control response was obtained by adding 20 μl diluted collagen to the untreated aliquot of PRP+50 μl saline. Final collagen concentration was 4 μg/ml. Aggregation was recorded for 3 min following the addition of collagen. […] Percent inhibition was calculated by comparing treated and control samples. IC50 's were calculated graphically from dose-response curves. Average values and standard errors were calculated using the IC50 's of the individual experiments. Statistical analyses were done by an unequal variance, unpaired Student's t-test [Minitab Reference Manual, Minitab Inc., State College, Pa. (1988)]. Statistical significance was assumed when p<0.05 was found.
as §1

[3] = Canis lupus familiaris, Platelet

Row | Compound | IC50 [1, 3] [µM] | further results
1 | 3[S]-[[[[1-[4-(aminoiminomethyl)phenyl]-2-oxo-3-pyrrolidinyl]amino]carbonyl]amino]benzenepropanoic acid trifluoroacetate. Enantiomerically Enriched Isomer B [Example 47] |  | IC50 [1]: 0.062 µM
2 | N=C(N)c1ccc(N2CCCC(CC(=O)NC(CC(=O)O)c3ccco3)C2=O)cc1 (mixture of isomers) [Example 34G, 3-[[[1-[4-(aminoiminomethyl)phenyl]2-oxo-3-piperidinyl]acetyl]amino]-3-(2-furanyl]propanoic acid, diastereomers] | 0.19 | 
3 | N=C(N)c1ccc(N2CCC(CC(=O)NC(CC(=O)O)c3ccoc3)C2=O)cc1 (single isomer, unassigned) [Example 51] | 0.05 | 
4 | C=C[C@H](CC(=O)O)NC(=O)CC1CCN(c2ccc(C(=N)N)cc2)C1=O (single isomer, unassigned; isomer a) [Example 4, 3S-[[[1-[4-(aminoiminomethyl)phenyl]-2-oxo-3-pyrrolidinyl]acetyl]amino]-4-pentenoic acid, monohydrochloride, enantiomerically enriched isomer A.] |  | IC50 [2]: 0.055 µM; IC50 [1]: 0.052 µM
5 | C=C[C@H](CC(=O)O)NC(=O)CC1CCCN(c2ccc(C(=N)N)cc2)C1=O (single isomer, unassigned; isomer a) [Example 34J] |  | inhibition at 1 µM ([1]; Canis lupus familiaris): 13%
6 | N=C(N)c1ccc(N2CCC(NC(=O)NCCC(=O)O)C2=O)cc1 (single isomer, unassigned; isomer a) [Example 41, 3-[[[[1-[4-(aminoiminomethyl)phenyl]-2-oxo-3-pyrrolidinyl]amino]carbonyl]amino]propanoic acid trifluoroacetate. Enantiomerically Enriched Isomer A.] |  | IC50 ([2]; Homo sapiens, Platelet): 0.15 µM; inhibition at 1 µM ([1]; Canis lupus familiaris): 30%
7 | C=C[C@H](CC(=O)O)NC(=O)CC1CCN(c2ccc(C(=N)N)cc2)C1=O (single isomer, unassigned; isomer b) [Example 6, 3S-[[[1-[4-(aminoiminomethyl)phenyl]-2-oxo-3-pyrrolidinyl]acetyl]amino]-4-pentenoic acid, enantiomerically enriched isomer B] |  | IC50 [2]: 0.85 µM; IC50 [1]: 1.6 µM
8 | N=C(N)c1ccc(N2CCCC(CC(=O)NCCC(=O)O)C2=O)cc1 (single isomer, unassigned; isomer b) [Example 34B, 3-[[[1-[4-(aminoiminomethyl)phenyl]-2-oxo-3-piperidinyl]acetyl]amino]propanoic acid, enantiomerically enriched isomer B] | 0.24 | 
9 | N=C(N)c1ccc(N2CCCC(CC(=O)NC(CC(=O)O)c3ccsc3)C2=O)cc1 (single isomer, unassigned; isomer b) [Example 34C, 3-[[[1-[4-(aminoiminomethyl)phenyl]-2-oxo-3-piperidinyl]acetyl]amino]-3-(3-thienyl)propanoic acid, enantiomerically enriched isomer B] | 0.16 | 
10 | N=C(N)c1ccc(N2CCCC(CC(=O)NC(CC(=O)O)c3ccoc3)C2=O)cc1 (single isomer, unassigned; isomer b) [Example 34E] | 0.07 | 
11 | C=C[C@H](CC(=O)O)NC(=O)CC1CCCN(c2ccc(C(=N)N)cc2)C1=O (single isomer, unassigned; isomer b) [Example 34L] | 0.059 | 
12 | C#C[C@H](CC(=O)O)NC(=O)CC1CCCN(c2ccc(C(=N)N)cc2)C1=O (single isomer, unassigned; isomer b) [Example 34N] | 0.059 | 
13 | N=C(N)c1ccc(N2CCC(CC(=O)NCCC(=O)O)C2=O)cc1 (single isomer, unassigned; isomer b) [Example 36, 3-[[[1-[4-(aminoiminomethyl)phenyl]-2-oxo-3-pyrrolidinyl]acetyl]amino]propionic acid, trifluoroacetate, enantiomerically enriched isomer B.] | 0.091 | IC50 ([2]; Homo sapiens, Platelet): 0.11 µM
14 | N=C(N)c1ccc(N2CCC(NC(=O)NCCC(=O)O)C2=O)cc1 (single isomer, unassigned; isomer b) [Example 43, 3-[[[[1-[4-(aminoiminomethyl)phenyl]-2-oxo-3-pyrrolidinyl]amino]carbonyl]amino]propanoic acid trifluoroacetate. Enantiomerically Enriched Isomer B.] | 0.09 | 
15 | C[C@H](CC(=O)O)NC(=O)NC1CCN(c2ccc(C(=N)N)cc2)C1=O (single isomer, unassigned; isomer b) [Example 45] | 0.039 | 
16 | N=C(N)c1ccc(N2CCC(NC(=O)NC[C@H](NC(=O)OCc3ccccc3)C(=O)O)C2=O)cc1 (single isomer, unassigned; isomer b) [Example 49] | 0.054 | 
17 | C=C[C@H](CC(=O)O)NC(=O)CC1CCN(c2ccc(C(=N)N)cc2)C1=O (stereo partly drawn) [Example 2, 3(S)-[[[1-[4-(aminoiminomethyl)phenyl]-2-oxo-3-pyrrolidinyl]acetyl]amino]-4-pentenoic acid, monohydrochloride] | 0.072 | 
18 | N=C(N)c1ccc(N2CCC(CC(=O)NCCC(=O)O)C2=O)cc1 (stereo not shown) [Example 8, 3-[[[1-[4-(aminoiminomethyl)phenyl]-2-oxo-3-pyrrolidinyl]acetyl]amino]propionic acid] | 0.18 | IC50 ([2]; Homo sapiens, Platelet): 0.18 µM
19 | CC(CC(=O)O)NC(=O)CC1CCN(c2ccc(C(=N)N)cc2)C1=O (stereo not shown) [Example 10, 3-[[[-[4-(aminoiminomethyl)phenyl]-2-oxo-3-pyrrolidinyl]acetyl]amino]butanoic acid] | 0.17 | IC50 ([2]; Homo sapiens, Platelet): 0.26 µM
20 | N=C(N)c1ccc(N2CCC(CC(=O)NC(CC(=O)O)c3ccccc3)C2=O)cc1 (stereo not shown) [Example 12, 3-[[[1-[4-(aminoiminomethyl)phenyl]-2-oxo-3-pyrrolidinyl]acetyl]amino]-3-phenylpropionic acid] | 0.39 | IC50 ([2]; Homo sapiens, Platelet): 0.29 µM
21 | C#C[C@H](CC(=O)O)NC(=O)CC1CCN(c2ccc(C(=N)N)cc2)C1=O (stereo partly drawn) [Example 14, 3(S) -[[[1-[4-(aminoiminomethyl)phenyl]-2-oxo-3-pyrrolidinyl]acetyl]amino]-4-pentynoic acid] | 0.12 | 
22 | C[Si](C)(C)C#C[C@H](CC(=O)O)NC(=O)CC1CCCN(c2ccc(C(=N)N)cc2)C1=O (stereo partly drawn) [Example 22, 3S-[[[1-[4-(aminoiminomethyl)phenyl]-2-oxo-3-piperidinyl]acetyl]amino]-5-(trimethylsilyl)-4-pentynoic acid] | 0.18 | 
23 | C#CC(CC(=O)O)NC(=O)CC1CCCN(c2ccc(C(=N)N)cc2)C1=O (stereo not shown) [Example 24, 3-[[[1-[4-(aminoiminomethyl)phenyl]-2-oxo-3-piperidinyl]acetyl]amino]-4-pentynoic acid.] | 0.19 | 
24 | CC(C)(C)C#CC(CC(=O)O)NC(=O)CC1CCCN(c2ccc(C(=N)N)cc2)C1=O (stereo not shown) [Example 26, 3-[[[1-[4-(aminoiminomethyl)phenyl]-2-oxo-3-piperidinyl]acetyl]amino]-6,6-dimethyl-4-heptynoic acid] | 0.59 | 
25 | C=C[C@H](CC(=O)O)NC(=O)CC1CCCN(c2ccc(C(=N)N)cc2)C1=O (stereo partly drawn) [Example 34, 3(S)-[[[1-[4-(aminoiminomethyl)phenyl]-2-oxo-3-piperidinyl]acetyl]amino]-4-pentenoic acid.] | 0.12 | 
26 | COc1ccc(C(CC(=O)O)NC(=O)CC2CCCN(c3ccc(C(=N)N)cc3)C2=O)cc1 (stereo not shown) [Example 34I, 3-[[[1-[4-(aminoiminomethyl)phenyl]-2-oxo-3-piperidinyl]acetyl]amino]-3-(4-methoxyphenyl)propanoic acid] | 0.18 | 
27 | N=C(N)c1ccc(N2CCC(NC(=O)NCCC(=O)O)C2=O)cc1 (stereo not shown) [Example 38, 3-[[[[1-[4-(aminoiminomethyl)phenyl]-2-oxo-3-pyrrolidinyl]amino]carbonyl]amino]propionic acid, trifluoroacetate.] | 0.125 | 
